Reference: the supplement of paper PMC11208160

Assay: recombinant UMI read abundance after kanamycin selection (control-corrected) (log10(CPM+1)); higher = more efficient recombination; extreme values may be limits of the assay; sequences stand for … in AGTGCAGAGAAAATCGGCCAGTTTTCTCTGCCTGCAGTCCGCATGCCGTGGGACCCCTTGGGTTCTAACCTGTTGCCTAGATTTATGCAGCGGACTGCCTTTCTCCCAAAGTGATAAACCGG…AGGTTGGTTTCACT; site = the 11-nt donor
How it was run: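 The measure is log10(CPM+1) for recombinant UMIs. These were PCR-amplified across the donor–target junction and sequenced after Escherichia coli carrying a donor and donor-binding-loop pair library and a target plasmid with T7-inducible IS621 bridge recombinase was plated on IPTG (0.07 mM) plus kanamycin or unselected. CPM were averaged over two replicates and scaled by control-derived factors.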
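Further: IS621 bridge recombinase in Escherichia coli cells against a fixed T5 target plasmid.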

Sequence	recombinant UMI read abundance (log10)
AGGAAGACATGGACCGGTTTTCCCGGTAATCCGTATTTGCA (site AGGAAGACTTA)	1.62
AGGAAGACATGGACCGGTTTTCCCGGTAATCCGTATTTGCA (site AGGAAGACTTC)	0.0105
AGGAAGACATGGACCGGTTTTCCCGGTAATCCGTATTTGCA (site AGGAAGACTTG)	2.88
AGGAAGACATGGACCGGTTTTCCCGGTAATCCGTATTTGCA (site AGGAAGACTTT)	2.15
AGGAAGACATGGACCGGTTTTCCCGGTAATCCGTATTTGCA (site AGGAAGCCTGG)	0
AGGAAGACATGGACCGGTTTTCCCGGTAATCCGTATTTGCA (site AGGAAGCCTTG)	0
AGGAAGACATGGACCGGTTTTCCCGGTAATCCGTATTTGCA (site AGGAAGCCTTT)	0
AGGAAGACATGGACCGGTTTTCCCGGTAATCCGTATTTGCA (site AGGAAGGCTAG)	0
AGGAAGACATGGACCGGTTTTCCCGGTAATCCGTATTTGCA (site AGGAAGGCTTC)	0
AGGAAGACATGGACCGGTTTTCCCGGTAATCCGTATTTGCA (site AGGAAGGCTTG)	1.84
AGGAAGACATGGACCGGTTTTCCCGGTAATCCGTATTTGCA (site AGGAAGTCTCG)	0
AGGAAGACATGGACCGGTTTTCCCGGTAATCCGTATTTGCA (site AGGAAGTCTTA)	0.81
AGGAAGACATGGACCGGTTTTCCCGGTAATCCGTATTTGCA (site AGGAAGTCTTG)	1.05
AGGAAGACATGGACCGGTTTTCCCGGTAATCCGTATTTGCA (site AGGAATACTAG)	0
AGGAAGACATGGACCGGTTTTCCCGGTAATCCGTATTTGCA (site AGGAATACTTC)	0
AGGAAGACATGGACCGGTTTTCCCGGTAATCCGTATTTGCA (site AGGAATACTTG)	1.12
AGGAAGACATGGACCGGTTTTCCCGGTAATCCGTATTTGCA (site AGGAATGCTTG)	0
AGGAAGACATGGACCGGTTTTCCCGGTAATCCGTATTTGCA (site AGGACGACTAG)	0.0203
AGGAAGACATGGACCGGTTTTCCCGGTAATCCGTATTTGCA (site AGGACGACTTC)	0.00604
AGGAAGACATGGACCGGTTTTCCCGGTAATCCGTATTTGCA (site AGGACGACTTG)	0.36
AGGAAGACATGGACCGGTTTTCCCGGTAATCCGTATTTGCA (site AGGACGGCTTG)	0.00854
AGGAAGACATGGACCGGTTTTCCCGGTAATCCGTATTTGCA (site AGGACTACTTG)	0
AGGAAGACATGGACCGGTTTTCCCGGTAATCCGTATTTGCA (site AGGAGCACTTG)	0.0101
AGGAAGACATGGACCGGTTTTCCCGGTAATCCGTATTTGCA (site AGGAGGACTGG)	0
AGGAAGACATGGACCGGTTTTCCCGGTAATCCGTATTTGCA (site AGGAGGACTTG)	0

Sequence	recombinant UMI read abundance (log10)
AGGAAGACATGGACCGGTTTTCCCGGTAATCCGTATTTGCA (site AGGAGGACTTT)	0.0142
AGGAAGACATGGACCGGTTTTCCCGGTAATCCGTATTTGCA (site AGGAGGCCTTG)	0
AGGAAGACATGGACCGGTTTTCCCGGTAATCCGTATTTGCA (site AGGATAACTTG)	0.855
AGGAAGACATGGACCGGTTTTCCCGGTAATCCGTATTTGCA (site AGGATGACTCG)	0.0201
AGGAAGACATGGACCGGTTTTCCCGGTAATCCGTATTTGCA (site AGGATGACTTA)	0.0119
AGGAAGACATGGACCGGTTTTCCCGGTAATCCGTATTTGCA (site AGGATGACTTG)	0.688
AGGAAGACATGGACCGGTTTTCCCGGTAATCCGTATTTGCA (site AGGATGTCTTG)	0
AGGAAGACATGGACCGGTTTTCCCGGTAATCCGTATTTGCA (site AGGCAGACTAG)	0
AGGAAGACATGGACCGGTTTTCCCGGTAATCCGTATTTGCA (site AGGCAGACTTC)	0.0244
AGGAAGACATGGACCGGTTTTCCCGGTAATCCGTATTTGCA (site AGGCAGACTTG)	1.49
AGGAAGACATGGACCGGTTTTCCCGGTAATCCGTATTTGCA (site AGGCAGGCTTG)	0.0104
AGGAAGACATGGACCGGTTTTCCCGGTAATCCGTATTTGCA (site AGGCATACTTG)	0
AGGAAGACATGGACCGGTTTTCCCGGTAATCCGTATTTGCA (site AGGCCGACTTG)	0.00452
AGGAAGACATGGACCGGTTTTCCCGGTAATCCGTATTTGCA (site AGGGAAACTTG)	0
AGGAAGACATGGACCGGTTTTCCCGGTAATCCGTATTTGCA (site AGGGAGACTCG)	0
AGGAAGACATGGACCGGTTTTCCCGGTAATCCGTATTTGCA (site AGGGAGACTTA)	0.00967
AGGAAGACATGGACCGGTTTTCCCGGTAATCCGTATTTGCA (site AGGGAGACTTG)	1.32
AGGAAGACATGGACCGGTTTTCCCGGTAATCCGTATTTGCA (site AGGGAGTCTTG)	0
AGGAAGACATGGACCGGTTTTCCCGGTAATCCGTATTTGCA (site AGGGTGACTTG)	0.161
AGGAAGACATGGACCGGTTTTCCCGGTAATCCGTATTTGCA (site AGGTACACTTG)	1.06
AGGAAGACATGGACCGGTTTTCCCGGTAATCCGTATTTGCA (site AGGTAGACTGG)	0
AGGAAGACATGGACCGGTTTTCCCGGTAATCCGTATTTGCA (site AGGTAGACTTG)	1.88
AGGAAGACATGGACCGGTTTTCCCGGTAATCCGTATTTGCA (site AGGTAGACTTT)	0.0208
AGGAAGACATGGACCGGTTTTCCCGGTAATCCGTATTTGCA (site AGGTAGCCTTG)	0
AGGAAGACATGGACCGGTTTTCCCGGTAATCCGTATTTGCA (site AGGTGGACTTG)	0.577

Sequence	recombinant UMI read abundance (log10)
AGGAAGACATGGACCGGTTTTCCCGGTAATCCGTATTTGCA (site AGTAACACTTG)	0.00423
AGGAAGACATGGACCGGTTTTCCCGGTAATCCGTATTTGCA (site AGTAAGACTGG)	0
AGGAAGACATGGACCGGTTTTCCCGGTAATCCGTATTTGCA (site AGTAAGACTTG)	1.25
AGGAAGACATGGACCGGTTTTCCCGGTAATCCGTATTTGCA (site AGTAAGACTTT)	0.006
AGGAAGACATGGACCGGTTTTCCCGGTAATCCGTATTTGCA (site AGTAAGCCTTG)	0
AGGAAGACATGGACCGGTTTTCCCGGTAATCCGTATTTGCA (site AGTAGGACTTG)	0.855
AGGAAGACATGGACCGGTTTTCCCGGTAATCCGTATTTGCA (site AGTTAGACTTG)	1
AGGAAGACATGGACCGGTTTTCCCGGTAATCCGTATTTGCA (site ATCAAGACTTG)	0.869
AGGAAGACATGGACCGGTTTTCCCGGTAATCCGTATTTGCA (site ATGAAGACTAG)	0
AGGAAGACATGGACCGGTTTTCCCGGTAATCCGTATTTGCA (site ATGAAGACTTC)	0.0122
AGGAAGACATGGACCGGTTTTCCCGGTAATCCGTATTTGCA (site ATGAAGACTTG)	1.43
AGGAAGACATGGACCGGTTTTCCCGGTAATCCGTATTTGCA (site ATGAAGGCTTG)	0
AGGAAGACATGGACCGGTTTTCCCGGTAATCCGTATTTGCA (site ATGAATACTTG)	0
AGGAAGACATGGACCGGTTTTCCCGGTAATCCGTATTTGCA (site ATGACGACTTG)	0
AGGAAGACATGGACCGGTTTTCCCGGTAATCCGTATTTGCA (site ATGCAGACTTG)	0.701
AGGAAGACATGGACCGGTTTTCCCGGTAATCCGTATTTGCA (site CAGAAGACTTG)	1.43
AGGAAGACATGGACCGGTTTTCCCGGTAATCCGTATTTGCA (site CGGAACACTTG)	0.912
AGGAAGACATGGACCGGTTTTCCCGGTAATCCGTATTTGCA (site CGGAAGACTGG)	0
AGGAAGACATGGACCGGTTTTCCCGGTAATCCGTATTTGCA (site CGGAAGACTTG)	0.801
AGGAAGACATGGACCGGTTTTCCCGGTAATCCGTATTTGCA (site CGGAAGACTTT)	0.95
AGGAAGACATGGACCGGTTTTCCCGGTAATCCGTATTTGCA (site CGGAAGCCTTG)	0
AGGAAGACATGGACCGGTTTTCCCGGTAATCCGTATTTGCA (site CGGAGGACTTG)	0.505
AGGAAGACATGGACCGGTTTTCCCGGTAATCCGTATTTGCA (site CGGTAGACTTG)	1.27
AGGAAGACATGGACCGGTTTTCCCGGTAATCCGTATTTGCA (site CGTAAGACTTG)	0.977
AGGAAGACATGGACCGGTTTTCCCGGTAATCCGTATTTGCA (site GGCAAGACTTG)	2.22
